# Measurements from patent publication US8952024B2, “Herbicidal pyrimidone derivatives” (E I du Pont de Nemours and Company, priority 2009, dated 2015).
# Assays:
# Assay type in all cases: in vivo
# [1] = system: winter barley (Hordeum vulgare); experiment: Test B postemergence plant response; conditions: Postemergence
# Outline: (§1)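 Plants at the 1- to 4-leaf stage (2 to 18 cm tall), grown in pots of peat moss/vermiculite medium with wetting agent and starter nutrients, received postemergence applications of test chemicals. After 13 to 15 days in a greenhouse, injury was rated visually against untreated controls on a 0 (no effect) to 100 (complete control) scale.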
# [2] = system: canarygrass (Phalaris minor); experiment: Test B postemergence plant response; conditions: Postemergence
# Outline: as §1
# [3] = system: chickweed (Stellaria media); experiment: Test B postemergence plant response; conditions: Postemergence
# Outline: as §1
# [4] = system: windgrass (Apera spica-venti); experiment: Test B postemergence plant response; conditions: Postemergence
# Outline: as §1
# [5] = system: velvetleaf (Abutilon theophrasti); experiment: Test B pre-/postemergence plant response
# Outline: (§2)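 Visually scored on a 0 to 100 scale after 13 to 15 days in greenhouse versus controls. Treatments were preemergence on seeded loam/sand soil and postemergence on 1- to 4-leaf plants.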
# [6] = system: green foxtail (Setaria viridis); experiment: Test B pre-/postemergence plant response
# Outline: as §2
# [7] = system: pigweed (Amaranthus retroflexus); experiment: Test B pre-/postemergence plant response
# Outline: as §2
# [8] = system: lambsquarters (Chenopodium album); experiment: Test B pre-/postemergence plant response
# Outline: as §2
# [9] = system: giant foxtail (Setaria faberii); experiment: Test B pre-/postemergence plant response
# Outline: as §2
# [10] = system: johnsongrass (Sorghum halepense); experiment: Test B pre-/postemergence plant response
# Outline: as §2
# [11] = system: yellow nutsedge (Cyperus esculentus); experiment: Test B pre-/postemergence plant response
# Outline: as §2
# [12] = system: corn (Zea mays); experiment: Test B pre-/postemergence plant response
# Outline: as §2
# [13] = system: soybean (Glycine max); experiment: Test B pre-/postemergence plant response
# Outline: as §2
# [14] = system: goosegrass (Eleusine indica); experiment: Test B pre-/postemergence plant response
# Outline: as §2
# [15] = 31 g ai/ha, 0 to 100 scale (0 no effect, 100 complete control)
# [16] = 62 g ai/ha, scale 0 to 100 (0 no effect, 100 complete control)
# [17] = 125 g ai/ha, scale 0 to 100 (0 no effect, 100 complete control)
# [18] = 250 g ai/ha, scale 0 to 100 (0 no effect, 100 complete control), 13 to 15 days
# [19] = Postemergence, 31 g ai/ha, 0 to 100 scale (0 no effect, 100 complete control)
# [20] = Postemergence, 62 g ai/ha, scale 0 to 100 (0 no effect, 100 complete control)
# [21] = Postemergence, 250 g ai/ha, scale 0 to 100 (0 no effect, 100 complete control), 13 to 15 days
# [22] = Postemergence, 125 g ai/ha, scale 0 to 100 (0 no effect, 100 complete control)
# [23] = 31 g ai/ha, scale 0 to 100 (0 no effect, 100 complete control)
# [24] = 62 g ai/ha, scale 0 (no effect) to 100 (complete control), 13 to 15 days
# [25] = 125 g ai/ha, visual rating after 13 to 15 days, scale 0 (no effect) to 100 (complete control)
# [26] = 250 g ai/ha, Preemergence, 0 to 100 scale
# [27] = Postemergence, 62 g ai/ha, scale 0 (no effect) to 100 (complete control), 13 to 15 days
# [28] = Postemergence, 125 g ai/ha, visual rating after 13 to 15 days, scale 0 (no effect) to 100 (complete control)
# [29] = Preemergence, 31 g ai/ha, scale 0 to 100 (0 no effect, 100 complete control)
# [30] = Preemergence, 125 g ai/ha, 0 to 100 scale
# [31] = Postemergence, 31 g ai/ha, scale 0 to 100 (0 no effect, 100 complete control)
# [32] = Postemergence, 250 g ai/ha, scale 0 to 100
# [33] = Preemergence, 62 g ai/ha, scale 0 to 100 (0 no effect, 100 complete control)
compound,measurement,setting,value
CCCn1c(-c2ccsc2)ncc(C(=O)C2=C(O)C3CCC(C3)C2=O)c1=O (stereo not shown) [Compound 227],"Plant response rating, Barley",[1]; [15],0
same,"Plant response rating, Barley",[1]; [16],5
same,"Plant response rating, Barley",[1]; [17],5
same,"Plant response rating, Barley",[1]; [18],30
same,"Plant response rating, Canarygrass",[2]; [15],0
same,"Plant response rating, Canarygrass",[2]; [16],0
same,"Plant response rating, Canarygrass",[2]; [17],5
same,"Plant response rating, Canarygrass",[2]; [18],10
same,"Plant response rating, Chickweed",[3]; [15],65
same,"Plant response rating, Chickweed",[3]; [16],75
same,"Plant response rating, Chickweed",[3]; [17],80
same,"Plant response rating, Chickweed",[3]; [18],90
same,"Plant response rating, Windgrass",[4]; [15],0
same,"Plant response rating, Windgrass",[4]; [16],30
same,"Plant response rating, Windgrass",[4]; [18],50
same,"Plant response rating, Velvetleaf",[5]; [19],80
same,"Plant response rating, Velvetleaf",[5]; [20],80
same,"Plant response rating, Velvetleaf",[5]; [21],98
same,"Plant response rating, Foxtail, Green",[6]; [19],50
same,"Plant response rating, Foxtail, Green",[6]; [20],90
same,"Plant response rating, Foxtail, Green",[6]; [22],90
same,"Plant response rating, Foxtail, Green",[6]; [21],90
same,"Plant response rating, Pigweed",[7]; [19],80
same,"Plant response rating, Pigweed",[7]; [20],90
same,"Plant response rating, Pigweed",[7]; [21],100
same,"Plant response rating, Lambsquarters",[8]; [19],90
same,"Plant response rating, Lambsquarters",[8]; [20],98
same,"Plant response rating, Lambsquarters",[8]; [22],98
same,"Plant response rating, Lambsquarters",[8]; [21],98
same,"Plant response rating, Foxtail, Giant",[9]; [19],75
same,"Plant response rating, Foxtail, Giant",[9]; [20],80
same,"Plant response rating, Foxtail, Giant",[9]; [22],90
same,"Plant response rating, Foxtail, Giant",[9]; [21],98
same,"Plant response rating, Johnsongrass",[10]; [19],45
same,"Plant response rating, Johnsongrass",[10]; [20],60
same,"Plant response rating, Johnsongrass",[10]; [22],60
same,"Plant response rating, Johnsongrass",[10]; [21],65
same,"Plant response rating, Nutsedge, Yellow",[11]; [19],10
same,"Plant response rating, Nutsedge, Yellow",[11]; [20],45
same,"Plant response rating, Nutsedge, Yellow",[11]; [22],65
same,"Plant response rating, Nutsedge, Yellow",[11]; [21],65
same,"Plant response rating, Corn",[12]; [19],20
same,"Plant response rating, Corn",[12]; [20],75
same,"Plant response rating, Corn",[12]; [22],75
same,"Plant response rating, Corn",[12]; [21],85
same,"Plant response rating, Soybean",[13]; [19],55
same,"Plant response rating, Soybean",[13]; [20],65
same,"Plant response rating, Soybean",[13]; [21],98
same,"Plant response rating, Goosegrass",[14]; [19],75
same,"Plant response rating, Goosegrass",[14]; [20],75
same,"Plant response rating, Goosegrass",[14]; [22],75
same,"Plant response rating, Goosegrass",[14]; [21],80
Cc1ccc(F)cc1-n1c(-c2ccccc2)ncc(C(=O)C2=C(O)CCCC2=O)c1=O [Compound 44],"Plant response rating, Barley",[1]; [23],0
same,"Plant response rating, Barley",[1]; [24],0
same,"Plant response rating, Barley",[1]; [25],5
same,Barley plant response rating,"[1]; 250 g ai/ha, scale 0 to 100",15
same,"Plant response rating, Canarygrass",[2]; [23],20
same,"Plant response rating, Canarygrass",[2]; [24],20
same,"Plant response rating, Canarygrass",[2]; [25],30
same,Canarygrass plant response rating,"[2]; 250 g ai/ha, scale 0 to 100",40
same,"Plant response rating, Chickweed",[3]; [23],90
same,"Plant response rating, Chickweed",[3]; [24],95
same,"Plant response rating, Chickweed",[3]; [25],98
same,Chickweed plant response rating,"[3]; 250 g ai/ha, scale 0 to 100",100
same,"Plant response rating, Windgrass",[4]; [24],70
same,"Plant response rating, Windgrass",[4]; [25],85
same,"Plant response rating, Velvetleaf",[5]; [26],100
same,"Plant response rating, Velvetleaf",[5]; [27],98
same,"Plant response rating, Velvetleaf",[5]; [28],100
same,"Plant response rating, Velvetleaf",[5]; [29],75
same,Velvetleaf plant response rating,[5]; [30],100
same,"Plant response rating, Foxtail, Green",[6]; [26],100
same,"Plant response rating, Foxtail, Green",[6]; [31],90
same,"Plant response rating, Foxtail, Green",[6]; [27],90
same,"Plant response rating, Foxtail, Green",[6]; [28],90
same,"Foxtail, Green plant response rating",[6]; [32],90
same,"Plant response rating, Foxtail, Green",[6]; [29],0
same,"Plant response rating, Foxtail, Green",[6]; [33],98
same,"Foxtail, Green plant response rating",[6]; [30],98
same,"Plant response rating, Pigweed",[7]; [26],100
same,"Plant response rating, Pigweed",[7]; [27],95
same,"Plant response rating, Pigweed",[7]; [28],98
same,"Plant response rating, Pigweed",[7]; [29],98
same,Pigweed plant response rating,[7]; [30],100
same,"Plant response rating, Lambsquarters",[8]; [26],100
same,"Plant response rating, Lambsquarters",[8]; [27],95
same,"Plant response rating, Lambsquarters",[8]; [28],95
same,Lambsquarters plant response rating,[8]; [32],98
same,"Plant response rating, Lambsquarters",[8]; [29],100
same,"Plant response rating, Lambsquarters",[8]; [33],100
same,Lambsquarters plant response rating,[8]; [30],100
same,"Plant response rating, Foxtail, Giant",[9]; [26],98
same,"Plant response rating, Foxtail, Giant",[9]; [31],95
same,"Plant response rating, Foxtail, Giant",[9]; [27],95
same,"Plant response rating, Foxtail, Giant",[9]; [28],95
same,"Foxtail, Giant plant response rating",[9]; [32],98
same,"Plant response rating, Foxtail, Giant",[9]; [29],20
same,"Plant response rating, Foxtail, Giant",[9]; [33],45
same,"Foxtail, Giant plant response rating",[9]; [30],75
same,"Plant response rating, Johnsongrass",[10]; [26],95
same,"Plant response rating, Johnsongrass",[10]; [27],70
same,"Plant response rating, Johnsongrass",[10]; [28],90
same,Johnsongrass plant response rating,[10]; [32],95
same,"Plant response rating, Johnsongrass",[10]; [29],10
same,"Plant response rating, Johnsongrass",[10]; [33],75
same,Johnsongrass plant response rating,[10]; [30],90
same,"Plant response rating, Nutsedge, Yellow",[11]; [26],90
same,"Plant response rating, Nutsedge, Yellow",[11]; [27],50
same,"Plant response rating, Nutsedge, Yellow",[11]; [28],50
same,"Plant response rating, Nutsedge, Yellow",[11]; [29],45
same,"Nutsedge, Yellow plant response rating",[11]; [30],75
same,"Plant response rating, Corn",[12]; [26],0
same,"Plant response rating, Corn",[12]; [31],75
same,"Plant response rating, Corn",[12]; [27],80
same,"Plant response rating, Corn",[12]; [28],80
same,Corn plant response rating,[12]; [32],85
same,"Plant response rating, Corn",[12]; [29],0
same,"Plant response rating, Corn",[12]; [33],0
same,Corn plant response rating,[12]; [30],0
same,"Plant response rating, Soybean",[13]; [26],0
same,"Plant response rating, Soybean",[13]; [27],95
same,"Plant response rating, Soybean",[13]; [28],95
same,"Plant response rating, Soybean",[13]; [29],0
same,Soybean plant response rating,[13]; [30],0
same,"Plant response rating, Goosegrass",[14]; [26],100
same,"Plant response rating, Goosegrass",[14]; [27],90
same,"Plant response rating, Goosegrass",[14]; [28],90
same,Goosegrass plant response rating,[14]; [32],95
same,"Plant response rating, Goosegrass",[14]; [29],90
same,Goosegrass plant response rating,[14]; [30],100
